Results as given in patent publication US20250312416A1, “METHOD AND PHARMACEUTICAL COMPOSITION FOR CARTILAGE REGENERATION” (FAR EASTERN MEMORIAL HOSPITAL, priority 2024, published 2025).
“Also recorded” adds a separate entry of the source.

Key:
clinical-grade ADSCs [1] = assay: Real-time PCR of chondrogenic genes in ADSCs; assay type: cell-based, human; conditions: for expression of chondrogenic genes (SOX9, COL2A1, COMP, ACAN, ITGB1, CXCL14, CXCR4): alanine-substituted variants, 10 ng one-day treatment, day 7, relative to untreated control ADSCs
Method: Real-time PCR analysis was conducted on day 7 for CXCL12/CXCL14 peptides treated ADSCs, evaluating the expression of COMP, SOX9, COL2A1, ACAN, ITGB1, and SOSTDC1 genes. Cells were harvested, and RNA extraction was performed using a LightCycler® (Roche Applied Science). The fold change in gene expression on the y-axis was calculated relative to the same gene expression in untreated chondrocytes. Statistical analysis was conducted using one-way ANOVA. Significance levels are denoted as follows: * p<0.05, ** p<0.01, *** p<0.001, and **** p<0.0001 for comparisons between PBS treatments and the untreated group.
Real-time PCR analysis was performed on day 7 for ADSCs treated with CXCR4 agonists, assessing the expression of COMP, SOX9, COL2A1, ACAN, ITGB1, CXCL14, and SOSTIC1 genes. Cellular harvest, RNA extraction, and gene expression quantification were conducted using a LightCycler® (Roche Applied Science). The fold change in gene expression on the y-axis was calculated relative to the same gene expression in untreated chondrocytes. Statistical analysis was executed through one-way ANOVA. Significance levels are represented as follows: * p<0.05, ** p<0.01, *** p<0.001, and **** p<0.0001, indicating the significance of comparisons between PBS treatments and the untreated group.
(§1) Alcian blue staining was used to assess the chondrogenic differentiation of ADSC pellets. […] Treatment with CXCL14-PM1, CXCL14-PM2, CXCL14-PM3, and CXCR4-PM1 was sufficient to enhance the expression of chondrogenic genes in ADSCs. On day 7, real-time PCR was performed to analyze the expression of key chondrogenic markers, including SOX9, COL2A1, COMP, ACAN, ITGB1, CXCL14, and CXCR4, in ADSCs treated with these modified peptides. ADSCs were exposed to distinct peptide modifications derived from CXCL12, CXCL14, and CXCR4 at a concentration of 10 ng for a one-day treatment, after which the medium was replaced with fresh peptide-free medium. At the end of the treatment period, RNA was extracted to evaluate the expression levels of chondrogenesis-related cytokine genes. Gene expression quantification was performed using a LightCycler system (Roche Applied Science), and fold changes were calculated relative to untreated control ADSCs. […] FIG. 16(D) provides a summary of the results for alanine substitution with positively or negatively charged amino acids in CXCL12, CXCL14, and CXCR4 peptides.
ADSCs were treated with CXCL14-P, CXCL14-P1, or CXCL14-P2, respectively, at a concentration of 10 ng for 24 hours, after which the medium was replaced with fresh peptide-free medium. On day 7, total RNA was extracted, and real-time PCR analysis was performed to assess the expression levels of key chondrogenic markers, including ACAN, COL2A1, SOX9, and COMP. Gene expression levels were quantified using a LightCycler system (Roche Applied Science), with fold changes calculated relative to untreated control ADSCs. […] Immunofluorescence staining was performed to detect Collagen Type II, SOX9, COMP, and nuclei (Hoechst 33342) in 3D ADSC spheroids (middle panel). […]
Human IPFP-MSCs and ADSCs were expanded in Dulbecco's Modified Eagle's Medium (DMEM, Gibco, cat. no 2145484) with 10% FBS under a 37° C., 5% CO2 atmosphere. MSCs collected and cell extractions were determined gene expression levels of cytokines and chondrogenic markers using a LightCycler® (Roche Applied Science). The fold change in gene expression on the y-axis was calculated based on untreated cell gene expression.

clinical-grade ADSCs [2] = assay: Alcian blue staining of chondrogenic pellets (GAG), ADSCs; assay type: cell-based, human; conditions: for GAG deposition (Alcian blue): day 7, CXCL14 variants vs CXCL14-P, CXCR4-PM1 vs control
Method: The chondrogenic differentiation of pellets containing clinical-grade ADSCs was assessed through Alcian blue staining.
The chondrogenic differentiation of pellets containing clinical-grade ADSCs was evaluated using Alcian blue staining.
as §1
To assess differentiation capacity, single-cell suspensions from cultured IPFP-MSCs and ADSCs were cultivated in chondrogenic medium. Alcian Blue staining was performed on day 7 to evaluate chondrogenic differentiation. The chondrogenic differentiation test was measured gene expressions of ACAN, COL2A1, SOX9, COMP, ITGB1, CXCL14 and SOSTDC1.

ADSC spheroids = assay: Immunofluorescence / confocal microscopy of chondrogenic proteins in ADSC spheroids; assay type: cell-based, human; conditions: ADSC spheroids, 7 days
Method: Both side views (observed in the x and z plane) and bottom views (observed in the […]) of the images are provided. The scale bar is set at 500 μm.
ADSCs were treated with CXCL14-P, CXCL14-P1, or CXCL14-P2, respectively, at a concentration of 10 ng for 24 hours, after which the medium was replaced with fresh peptide-free medium. On day 7, total RNA was extracted, and real-time PCR analysis was performed to assess the expression levels of key chondrogenic markers, including ACAN, COL2A1, SOX9, and COMP. Gene expression levels were quantified using a LightCycler system (Roche Applied Science), with fold changes calculated relative to untreated control ADSCs. […] Immunofluorescence staining was performed to detect Collagen Type II, SOX9, COMP, and nuclei (Hoechst 33342) in 3D ADSC spheroids (middle panel).
(FIG. 3). […] Moreover, fluorescence confocal microscopy was employed to detect protein patterns and confirm the levels of SOX9, type II collagen, and aggrecan proteins in ADSC spheroids. […] Finally, to investigate whether the CXCR4 receptor of CXCL12/CXCL14 confers chondrogenic signaling during chondrogenesis, we treated ADSCs with a CXCR4 agonist for 7 days.
Extracellular vesicles (EVs) derived from MSCs hold significant potential for repairing damaged tissues. In this study, we explored whether EVs from ADSCs could effectively enhance chondrogenesis and promote cartilage repair. Immunofluorescence staining was used to assess protein levels of Collagen Type II (green), SOX9 (red), COMP (indigo), and Hoechst 33342 (gray) in 3D ADSC spheroids treated with MSC-EVs derived from CXCL14 peptide-primed ADSCs (CXCL14-P-MSC-EVs) at various time points. […] To further explore the cartilage repair functions of EVs from CXCL14-P-treated ADSCs and the encapsulation of the transcription factor SOX9 within MSCs and purified EVs, we performed in vivo studies.

UC-MSCs [3] = assay: Alcian blue staining of chondrogenic pellets (GAG), UC-MSCs; assay type: cell-based; conditions: in the presence of TGF-beta
From the text: (§2) FIG. 13A provides flowchart illustrating the protocol for peptide treatment and sample collection. […] TGF-beta influenced the expression of chondrogenic genes, including ITGB1 and COMP. […] Treatment with CXCL14/CXCL12 peptides increased GAG content during chondrogenesis in the presence of TGF-beta.
(§3) To further validate the role of CXCL14-P and CXCL12-P in regulating chondrogenesis, we compared their effects on another MSC source, umbilical cord-derived mesenchymal stem cells (UC-MSCs). It is important to note that the chondrogenic induction medium contained TGF-β. During chondrogenesis, we observed that the chondrogenic patterns in UC-MSCs were lower than those in ADSCs (FIG. 12). Subsequently, we assessed the chondrogenic potential of UC-MSCs following stimulation with CXCL14-P and CXCL12-P (FIG. 13A). […] Although the expression of chondrogenic genes (FIG. 13B) and GAG content (FIG. 13C) in UC-MSCs was not as pronounced as in ADSCs, the findings confirm that CXCL14-P and CXCL12-P can robustly stimulate chondrogenesis across different MSC sources.

UC-MSCs [4] = assay: Real-time PCR of chondrogenic genes in UC-MSCs; assay type: cell-based; conditions: day 7 of peptide treatment
From the text: as §2, §3

ADSCs = assay: Cellular uptake of fluorescently labeled peptides by fluorescence microscopy; assay type: cell-based, human; conditions: 10 ng FITC-conjugated peptide, 37° C. for one day, observed days 1, 3, 7
Method: Cell-penetrating properties of CXCL14-P and CXCL12-P peptides in ADSCs were analyzed. ADSCs were incubated with 10 ng of FITC-conjugated peptides at 37° C. for one day, followed by refreshing the chondrogenic medium. Peptide internalization was evaluated through fluorescence microscopy on days 1, 3, and 7.
We further explored whether peptides derived from CXCL14 and CXCL12 have the capacity to induce chondrogenesis in MSCs from different sources. To assess their potential, ADSCs were utilized in the study to evaluate the chondrogenic capacity of CXCL14-P and CXCL12-P on day 7 (FIG. 10A). […] FIG. 11 illustrates the cell-penetrating properties of CXCL14-P and CXCL12-P peptides in ADSCs, analyzed at different time points. ADSCs were incubated with FITC-conjugated peptides for one day, after which the chondrogenic medium was refreshed. […] Collectively, these observations indicate that CXCL14-P and CXCL12-P have the ability to stimulate chondrogenesis and further amplify the effects of TGF-β during the chondrogenic process.

In the case of ITTKSVSRYRGQAH [CXCL14-PM2], the “expression of chondrogenic genes (SOX9, COL2A1, COMP, ACAN, ITGB1, CXCL14, CXCR4)” value (clinical-grade ADSCs [1]) is reported as “significantly enhance” and the “GAG deposition (Alcian blue)” value (clinical-grade ADSCs [2]) is reported as “increased GAG deposition; also recorded: enhance GAG contents”.

ITTASVSAYAGQEH [CXCL14-PM1] was tested, and the “expression of chondrogenic genes (SOX9, COL2A1, COMP, ACAN, ITGB1, CXCL14, CXCR4)” value (clinical-grade ADSCs [1]) was “significantly enhance” and the “GAG deposition (Alcian blue)” value (clinical-grade ADSCs [2]) was “increased GAG deposition; also recorded: enhance GAG contents”.

AANVAHLAILN [CXCL12-PM1] was tested, and the “expression of chondrogenic marker genes, variant vs unmodified peptide” value (clinical-grade ADSCs [1]; CXCL12-P vs CXCL12-PM1, day 7) was “no significant changes” and the “expression of chondrogenic genes (SOX9, COL2A1, COMP, ACAN, ITGB1, CXCL14, CXCR4)” value (clinical-grade ADSCs [1]) was “significantly enhance”.

In the case of ITTKSVSRYRGDEH [CXCL14-PM3], the “expression of chondrogenic genes (SOX9, COL2A1, COMP, ACAN, ITGB1, CXCL14, CXCR4)” value (clinical-grade ADSCs [1]) is reported as “significantly enhance” and the “GAG deposition (Alcian blue)” value (clinical-grade ADSCs [2]) is reported as “increased GAG deposition; also recorded: did not significantly alter GAG contents”.

“MGYGAALASMTDAYAL (MGYQAALASMTDAYAL) [CXCR4-PM1]” was tested, and the “expression of chondrogenic genes (SOX9, COL2A1, COMP, ACAN, ITGB1, CXCL14, CXCR4)” value (clinical-grade ADSCs [1]) was “significantly enhance” and the “GAG deposition (Alcian blue)” value (clinical-grade ADSCs [2]) was “increased GAG deposition; also recorded: significantly enhanced”.

With “CXCL12: C-X-C motif chemokine 12, also known as stromal cell-derived factor 1 (SDF-1)” the “expression of SOX9, type II collagen, and aggrecan” value (ADSC spheroids) was “notably induced”.

RANVKHLKILN [CXCL12-P] was tested, and the “expression of chondrogenic genes (COMP, SOX9, COL2A1, ACAN, ITGB1, SOSTDC1)” value (clinical-grade ADSCs [1]; day 7, peptides compared to CXCL12/CXCL14 proteins, listed as CXCL12 peptide) was “significantly upregulated; also recorded: greater ability”, the “expression of chondrogenic genes (COMP, SOX9, COL2A1, ACAN, ITGB1)” value (clinical-grade ADSCs [1]; day 7 of treatment with peptide) was “significantly upregulated” and the chondrogenic genes (clinical-grade ADSCs [1]; in the absence of TGF-β) was “evident”. For the same substance, the “expression of chondrogenic genes ITGB1 and COMP” value (clinical-grade ADSCs [1]; in the presence of TGF-β, day 7) was “significantly enhanced”, the “GAG content (Alcian blue)” value (clinical-grade ADSCs [2]; in the absence of TGF-β) was “evident” and the “GAG content (Alcian blue)” value (clinical-grade ADSCs [2]; in the presence of TGF-beta) was “significantly increased”. The “GAG content (Alcian blue)” value (clinical-grade ADSCs [2]; peptides compared to CXCL14/CXCL12 proteins, listed as CXCL12 peptide) was “significantly higher; also recorded: greater ability”, the “GAG content (Alcian blue)” value (UC-MSCs [3]) was “increased” and the “chondrogenic gene expression (COMP, SOX9, COL2A1, ACAN, ITGB1)” value (UC-MSCs [4]) was “significantly upregulated”. The “peptide internalization (cell penetration)” value (ADSCs) was “remain detectable up to day 7”.
